Source: publication PMC12154458, “High-Throughput Screens of Repurposing Hub and DOS Chemical Libraries Reveal Compounds with Novel and Potent Inhibitory Activity Against the Essential Non-Neuronal Acetylcholinesterase of Schistosoma mansoni (SmTAChE)” (International Journal of Molecular Sciences, 2025)
Where two headings read alike, the source gives them in different places.

Key:
[1] = target: recombinant human acetylcholinesterase, rHsAChE (Homo sapiens, UniProt P22303); test: biochemical
rSmTAChE [2] = target: T1, rSmTAChE (Schistosoma mansoni, UniProt A0A3Q0KMM5); test: biochemical
T1 sequence (A0A3Q0KMM5 27-661 limits assumed): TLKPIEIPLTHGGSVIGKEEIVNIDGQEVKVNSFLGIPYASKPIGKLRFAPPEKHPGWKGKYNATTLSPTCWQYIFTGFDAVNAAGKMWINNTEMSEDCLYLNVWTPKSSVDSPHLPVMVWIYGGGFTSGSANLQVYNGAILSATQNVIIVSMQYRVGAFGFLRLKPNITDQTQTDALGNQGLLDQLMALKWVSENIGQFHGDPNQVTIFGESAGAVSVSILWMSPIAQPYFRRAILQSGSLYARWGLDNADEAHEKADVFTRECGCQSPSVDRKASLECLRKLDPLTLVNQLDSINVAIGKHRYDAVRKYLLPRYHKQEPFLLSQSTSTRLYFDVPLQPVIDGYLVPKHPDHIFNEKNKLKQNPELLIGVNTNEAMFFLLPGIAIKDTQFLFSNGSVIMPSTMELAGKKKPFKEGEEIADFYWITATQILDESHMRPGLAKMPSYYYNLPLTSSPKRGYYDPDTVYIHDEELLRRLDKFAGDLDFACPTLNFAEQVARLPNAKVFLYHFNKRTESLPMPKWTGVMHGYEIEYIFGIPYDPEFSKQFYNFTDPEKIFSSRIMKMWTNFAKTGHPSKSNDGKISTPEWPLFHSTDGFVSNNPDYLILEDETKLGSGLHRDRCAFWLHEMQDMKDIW

rSmTAChE [3] = target: T1, rSmTAChE; assay type: biochemical
[4] = read-out: qAC50 (IC50), rHsAChE
[5] = read-out: qAC50 (IC50), rSmTAChE
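Wherever Inhibition (%) (Average) is given: mostly 20 µM final but a few compounds at 5 or 10 µM.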
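Wherever Inhibition (%) Replicate A is given: mostly 20 µM final but a few compounds at 5 or 10 µM.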
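Wherever Inhibition (%) Replicate B is given: mostly 20 µM final but a few compounds at 5 or 10 µM.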

recombinant human acetylcholinesterase, rHsAChE, sequence (P22303 32-614): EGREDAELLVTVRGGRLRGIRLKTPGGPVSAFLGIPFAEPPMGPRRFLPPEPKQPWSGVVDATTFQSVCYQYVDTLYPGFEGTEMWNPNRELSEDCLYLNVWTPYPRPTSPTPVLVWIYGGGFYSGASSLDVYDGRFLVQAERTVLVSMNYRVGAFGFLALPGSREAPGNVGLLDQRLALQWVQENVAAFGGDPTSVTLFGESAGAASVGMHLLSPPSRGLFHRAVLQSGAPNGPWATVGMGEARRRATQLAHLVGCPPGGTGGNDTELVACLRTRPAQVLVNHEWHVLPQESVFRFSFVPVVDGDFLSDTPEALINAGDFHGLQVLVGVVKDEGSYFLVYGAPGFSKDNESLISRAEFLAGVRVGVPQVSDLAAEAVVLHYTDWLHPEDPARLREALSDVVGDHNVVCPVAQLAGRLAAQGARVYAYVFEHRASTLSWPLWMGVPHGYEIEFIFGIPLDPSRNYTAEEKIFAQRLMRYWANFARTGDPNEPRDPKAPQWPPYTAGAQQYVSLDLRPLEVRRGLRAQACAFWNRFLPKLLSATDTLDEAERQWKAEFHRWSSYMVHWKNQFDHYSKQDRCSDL

For `CC(C)(C#N)c1ccc(N2C(=O)OCc3cnc4ccc(-c5cnc6ccccc6c5)cc4c32)cc1` [BRD-K24556407-001-02-3], the “Data Mode (curve class), rHsAChE” value [1] was “inactive”, the “Inhibition (%) (Average)” value (rSmTAChE [2]) was 72.65% and the “Inhibition (%) Replicate A” value (rSmTAChE [2]) was 73.71%. For the same compound, the “Inhibition (%) Replicate B” value (rSmTAChE [2]) was 71.58% and the “Data Mode (curve class), rSmTAChE” value (rSmTAChE [3]) was “inactive”.

With `O=C(Nc1ccc(Cl)cc1)Nc1ccc(Cl)c(Cl)c1` [BRD-K25029121-001-05-8] the “Data Mode (curve class), rHsAChE” value [1] was “decreasing (weakly active)”, the IC50 [1, 4] was greater than 38 µM and the “Inhibition (%) (Average)” value (rSmTAChE [2]) was 85.20%. For the same compound, the “Inhibition (%) Replicate A” value (rSmTAChE [2]) was 84.59%, the “Inhibition (%) Replicate B” value (rSmTAChE [2]) was 85.82% and the “Data Mode (curve class), rSmTAChE” value (rSmTAChE [3]) was “inactive”.

With `CCOc1nc2cccc(C(=O)OCc3oc(=O)oc3C)c2n1Cc1ccc(-c2ccccc2-c2noc(=O)[nH]2)cc1` [BRD-K25723200-001-03-5] the “Data Mode (curve class), rHsAChE” value [1] was “decreasing (weakly active)”, the IC50 [1, 4] was greater than 12 µM and the “Inhibition (%) (Average)” value (rSmTAChE [2]) was 67.00%. The “Inhibition (%) Replicate A” value (rSmTAChE [2]) was 73.36%, the “Inhibition (%) Replicate B” value (rSmTAChE [2]) was 60.64% and the “Data Mode (curve class), rSmTAChE” value (rSmTAChE [3]) was “decreasing”. For the same compound, the IC50 (rSmTAChE [3]; [5]) was 11.6 µM.

`COc1ccc(C(Cl)=C(c2ccc(OC)cc2)c2ccc(OC)cc2)cc1` [BRD-K27062708-001-23-1] was tested, and the “Data Mode (curve class), rHsAChE” value [1] was “decreasing (weakly active)”, the IC50 [1, 4] was greater than 38 µM and the “Inhibition (%) (Average)” value (rSmTAChE [2]) was 64.11%. The “Inhibition (%) Replicate A” value (rSmTAChE [2]) was 62.61%, the “Inhibition (%) Replicate B” value (rSmTAChE [2]) was 65.61% and the “Data Mode (curve class), rSmTAChE” value (rSmTAChE [3]) was “inactive”.

In the case of `COc1ccc(NC(=O)Nc2ccc3c(c2)[C@@H]2C[C@H](CC(=O)NCc4ccc5c(c4)OCO5)O[C@@H](CO)[C@@H]2O3)cc1` [BRD-K27599706-001-01-0], the “rHsAChE Data Mode” value [1] is reported as “decreasing (weakly active)”, the “Inhibition (%) (Average)” value (rSmTAChE [2]) is reported as 78.59% and the “Inhibition (%) Replicate A” value (rSmTAChE [2]) is reported as 80.15%. The “Inhibition (%) Replicate B” value (rSmTAChE [2]) was 77.03% and the “rSmTAChE Data Mode” value (rSmTAChE [3]) was “decreasing (weakly active)”.

With `COc1ccccc1-c1cccc(-c2nc(C(=O)NCc3ccncc3)cc3c2[C@@H](CCO)N([S@+]([O-])C(C)(C)C)C3)c1` [BRD-K32310489-001-03-4] the “rHsAChE Data Mode” value [1] was “inactive”, the “Inhibition (%) (Average)” value (rSmTAChE [2]) was 64.60% and the “Inhibition (%) Replicate A” value (rSmTAChE [2]) was 65.31%. The “Inhibition (%) Replicate B” value (rSmTAChE [2]) was 63.89% and the “rSmTAChE Data Mode” value (rSmTAChE [3]) was “decreasing (weakly active)”.

For `COc1cccc(C#Cc2ccc([C@@H]3[C@@H](C#N)N(C(=O)c4ccccn4)[C@H]3CO)cc2)c1` [BRD-K32986110-001-01-2, (2S,3R,4R)-4-(hydroxymethyl)-3-[4-[2-(3-methoxyphenyl)ethynyl]phenyl]-1-[oxo(2-pyridinyl)methyl]-2-azetidinecarbonitrile], the IC50 ([1]; Table 2, DOS-A library, Inactive = inactive at the maximum tested concentration (40 µM), read-out: IC50 (µM) rHsAChE) was 31.2 µM, the IC50 ([1]; Table S4, DOS-A (IC50 values; qAC50), read-out: rHsAChE qAC50) was 31.3 µM and the “rHsAChE Data Mode” value ([1]; dose response curve classification, Table S4, DOS-A) was “decreasing”. The inhibition at 20 µM (rSmTAChE [2]; read-out: rSmTAChE HTS Inhibition (Ave, %)) was 71.4%, the “SI (Hs/Sm)” value (rSmTAChE [3]) was 1.1 and the “rSmTAChE Data Mode” value (rSmTAChE [3]) was “decreasing”.

`O=C(O)c1ccccc1Nc1ccc(CCc2ccc(Cl)c(Cl)c2)cc1` [BRD-K34657753-001-01-9] was tested, and the “Data Mode (curve class), rHsAChE” value [1] was “decreasing”, the IC50 [1, 4] was 8.55 µM and the “Inhibition (%) (Average)” value (rSmTAChE [2]) was 82.51%. The “Inhibition (%) Replicate A” value (rSmTAChE [2]) was 83.46%, the “Inhibition (%) Replicate B” value (rSmTAChE [2]) was 81.56% and the “Data Mode (curve class), rSmTAChE” value (rSmTAChE [3]) was “decreasing”. The IC50 (rSmTAChE [3]; [5]) was 12.4 µM.

In the case of `C[C@H](NC(=O)C(C)(C)Oc1ccc(C(F)(F)F)cn1)[C@@H](Cc1ccc(Cl)cc1)c1cccc(C#N)c1` [BRD-K35169477-001-01-9], the “Data Mode (curve class), rHsAChE” value [1] is reported as “decreasing (weakly active)”, the IC50 [1, 4] is reported as greater than 13.5 µM and the “Inhibition (%) (Average)” value (rSmTAChE [2]) is reported as 62.68%. The “Inhibition (%) Replicate A” value (rSmTAChE [2]) was 60.97%, the “Inhibition (%) Replicate B” value (rSmTAChE [2]) was 64.40% and the “Data Mode (curve class), rSmTAChE” value (rSmTAChE [3]) was “inactive”.

In the case of `CCCC(=O)Nc1ccc2c(c1)OC[C@@H](C)N(Cc1cc(-c3ccccc3)on1)C[C@@H](C)[C@H](OC)CN(C)C2=O` [BRD-K35965314-001-01-7], the “rHsAChE Data Mode” value [1] is reported as “inactive”, the “Inhibition (%) (Average)” value (rSmTAChE [2]) is reported as 67.01% and the “Inhibition (%) Replicate A” value (rSmTAChE [2]) is reported as 68.51%. For the same compound, the “Inhibition (%) Replicate B” value (rSmTAChE [2]) was 65.51% and the “rSmTAChE Data Mode” value (rSmTAChE [3]) was “inactive”.

`CC(C)n1cnc2c(NCCc3ccc(O)cc3)nc(-c3csc4ccccc34)nc21` [BRD-K36739687-001-03-0] was tested, and the “Data Mode (curve class), rHsAChE” value [1] was “inactive”, the “Inhibition (%) (Average)” value (rSmTAChE [2]) was 68.06% and the “Inhibition (%) Replicate A” value (rSmTAChE [2]) was 70.28%. For the same compound, the “Inhibition (%) Replicate B” value (rSmTAChE [2]) was 65.85% and the “Data Mode (curve class), rSmTAChE” value (rSmTAChE [3]) was “inactive”.

`O=C(C[C@@H]1C[C@@H]2c3cc(NC(=O)NC4CCCC4)ccc3O[C@@H]2[C@H](CO)O1)NCc1ccc(Cl)cc1` [BRD-K38240817-001-01-4] was tested, and the “rHsAChE Data Mode” value [1] was “decreasing (weakly active)”, the “Inhibition (%) (Average)” value (rSmTAChE [2]) was 84.65% and the “Inhibition (%) Replicate A” value (rSmTAChE [2]) was 85.52%. The “Inhibition (%) Replicate B” value (rSmTAChE [2]) was 83.79% and the “rSmTAChE Data Mode” value (rSmTAChE [3]) was “decreasing (weakly active)”.

`Cc1nc2sccn2c(=O)c1CCN1CCC(=C(c2ccc(F)cc2)c2ccc(F)cc2)CC1` [BRD-K40887525-001-23-5] was tested, and the “Data Mode (curve class), rHsAChE” value [1] was “decreasing”, the IC50 [1, 4] was 10.9 µM and the “Inhibition (%) (Average)” value (rSmTAChE [2]) was 80.73%. The “Inhibition (%) Replicate A” value (rSmTAChE [2]) was 82.03%, the “Inhibition (%) Replicate B” value (rSmTAChE [2]) was 79.42% and the “Data Mode (curve class), rSmTAChE” value (rSmTAChE [3]) was “decreasing (weakly active)”. It also gave an IC50 (rSmTAChE [3]; [5]) greater than 19.5 µM.

For `CCOC(=O)C1=C(C)NC(C)=C(C(=O)OCC)C1c1ccccc1/C=C/C(=O)OC(C)(C)C` [BRD-K43586850-001-02-9], the “Data Mode (curve class), rHsAChE” value [1] was “inactive”, the “Inhibition (%) (Average)” value (rSmTAChE [2]) was 95.79% and the “Inhibition (%) Replicate A” value (rSmTAChE [2]) was 92.71%. For the same compound, the “Inhibition (%) Replicate B” value (rSmTAChE [2]) was 98.87% and the “Data Mode (curve class), rSmTAChE” value (rSmTAChE [3]) was “inactive”.

`COCCOc1ccc2c(c1)ncn2-c1ccc2cccc(N3CCC(N)CC3)c2n1` [BRD-K43621685-001-03-3] was tested, and the “Data Mode (curve class), rHsAChE” value [1] was “decreasing”, the IC50 [1, 4] was 20.7 µM and the “Inhibition (%) (Average)” value (rSmTAChE [2]) was 79.32%. For the same compound, the “Inhibition (%) Replicate A” value (rSmTAChE [2]) was 80.31%, the “Inhibition (%) Replicate B” value (rSmTAChE [2]) was 78.32% and the “Data Mode (curve class), rSmTAChE” value (rSmTAChE [3]) was “decreasing (weakly active)”. The IC50 (rSmTAChE [3]; [5]) was greater than 38 µM.

With `CC#C[C@@H](CC(=O)O)c1ccc(OCc2cccc(-c3ccc(C(F)(F)F)cc3)c2)cc1` [BRD-K43802723-340-01-9] the “Data Mode (curve class), rHsAChE” value [1] was “decreasing”, the IC50 [1, 4] was 15.4 µM and the “Inhibition (%) (Average)” value (rSmTAChE [2]) was 79.76%. For the same compound, the “Inhibition (%) Replicate A” value (rSmTAChE [2]) was 80.42%, the “Inhibition (%) Replicate B” value (rSmTAChE [2]) was 79.10% and the “Data Mode (curve class), rSmTAChE” value (rSmTAChE [3]) was “decreasing”. For the same compound, the IC50 (rSmTAChE [3]; [5]) was 13.4 µM.

With `O=C(C[C@@H]1C=C[C@@H](NC(=O)c2ccncc2)[C@H](CO)O1)Nc1ccc(-c2ccccc2)cc1` [BRD-K45095313-001-01-2] the “rHsAChE Data Mode” value [1] was “inactive”, the “Inhibition (%) (Average)” value (rSmTAChE [2]) was 61.11% and the “Inhibition (%) Replicate A” value (rSmTAChE [2]) was 60.65%. For the same compound, the “Inhibition (%) Replicate B” value (rSmTAChE [2]) was 61.57% and the “rSmTAChE Data Mode” value (rSmTAChE [3]) was “inactive”.

With `COc1ccc(NC(=O)Nc2ccc3c(c2)[C@H]2C[C@@H](CC(=O)NCc4ccccn4)O[C@@H](CO)[C@H]2O3)cc1` [BRD-K46319090-001-01-4] the “rHsAChE Data Mode” value [1] was “inactive”, the “Inhibition (%) (Average)” value (rSmTAChE [2]) was 89.33% and the “Inhibition (%) Replicate A” value (rSmTAChE [2]) was 88.58%. The “Inhibition (%) Replicate B” value (rSmTAChE [2]) was 90.08%, the “rSmTAChE Data Mode” value (rSmTAChE [3]) was “decreasing” and the IC50 (rSmTAChE [3]; read-out: rSmTAChE qAC50) was 37.8 µM.

For `C#C[C@]1(OC(C)=O)CC[C@H]2[C@@H]3CCC4=C[C@@H](OC(C)=O)CC[C@@H]4[C@H]3CC[C@@]21C` [BRD-K46331928-001-05-8], the “Data Mode (curve class), rHsAChE” value [1] was “inactive”, the “Inhibition (%) (Average)” value (rSmTAChE [2]) was 94.91% and the “Inhibition (%) Replicate A” value (rSmTAChE [2]) was 95.51%. The “Inhibition (%) Replicate B” value (rSmTAChE [2]) was 94.31%, the “Data Mode (curve class), rSmTAChE” value (rSmTAChE [3]) was “decreasing (weakly active)” and the IC50 (rSmTAChE [3]; [5]) was greater than 38 µM.

With `CCCCCCCCCCCCCCCC[N+](C)(C)C` [BRD-K47079459-004-04-6] the “Data Mode (curve class), rHsAChE” value [1] was “decreasing”, the IC50 [1, 4] was 10.3 µM and the “Inhibition (%) (Average)” value (rSmTAChE [2]) was 64.20%. The “Inhibition (%) Replicate A” value (rSmTAChE [2]) was 65.92%, the “Inhibition (%) Replicate B” value (rSmTAChE [2]) was 62.47% and the “Data Mode (curve class), rSmTAChE” value (rSmTAChE [3]) was “decreasing”. The IC50 (rSmTAChE [3]; [5]) was 17 µM.
